A word on the Kd: it is the constant that tells how readily two partners part at equilibrium. High values mean weaker binding, low ones tighter binding.

The structures appear in SMILES notation.

This test concerns the target CalO2 (Micromonospora echinospora, UniProt Q8KND6). Nature of the test: CalO2 ligand binding by UV-vis difference spectra. Further details: species or system M. echinospora.
`CC(=O)NCCSC(=O)c1c(C)cc(O)cc1O` [compound 11] displayed a Kd of 170 ± 30 µM.

Take `CC(=O)NCCSC(=O)c1cccc(I)c1` [compound 13]: the Kd came to 120 µM.

Turning to `CC(=O)NCCSC(=O)c1ccccc1O` [compound 14], the Kd stood at 405 ± 100 µM.

The values above are taken from article PMC2742692 (Proteins, 2009).
